Measured values: patent publication US7745422B2, “Bisphosphonate compounds and methods for bone resorption diseases, cancer, bone pain, immune disorders, and infectious diseases” (The Board of Trustees of the University of Illinois, priority 2004, dated 2010)
In brackets after ≈: the same amount, converted by molar mass. Like-named read-outs stand apart in the source and are kept apart here.

Key:
Dictyostelium discoideum = assay: D. discoideum cell growth inhibition; type: cell-based
From the text: (§1) We then investigated the activity of each compound in inhibiting the FPPS from L. major, in Dictyostelium discoideum growth inhibition and in γδ T cell activation. We used the FPPS from L. major since this enzyme is the putative bisphosphonate target in several trypanosomatid species.

Vγ2Vδ2 T cells [1] = assay: gammadelta T cell stimulation (TNF-α release assay); type: cell-based, human
From the text: as §1

human FPPS = target: T1, human FPPS (Homo sapiens, UniProt P14324); assay: human FPPS assay; type: biochemical
T1 sequence (P14324 1-419): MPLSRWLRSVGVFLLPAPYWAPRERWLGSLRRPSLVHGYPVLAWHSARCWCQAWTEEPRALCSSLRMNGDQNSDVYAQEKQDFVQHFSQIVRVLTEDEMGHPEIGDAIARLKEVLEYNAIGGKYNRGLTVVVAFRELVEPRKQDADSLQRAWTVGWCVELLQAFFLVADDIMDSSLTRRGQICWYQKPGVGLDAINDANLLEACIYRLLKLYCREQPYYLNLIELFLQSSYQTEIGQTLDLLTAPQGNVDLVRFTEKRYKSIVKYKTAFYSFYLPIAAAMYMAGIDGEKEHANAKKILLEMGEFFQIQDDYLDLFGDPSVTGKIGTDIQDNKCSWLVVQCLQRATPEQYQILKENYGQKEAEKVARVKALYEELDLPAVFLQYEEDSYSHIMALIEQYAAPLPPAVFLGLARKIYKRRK

L. major FPPS [2] = target: T2, L. major FPPS (Leishmania major, UniProt Q4QBL1); assay: biochemical; type: biochemical
T2 sequence (Q4QBL1 1-362): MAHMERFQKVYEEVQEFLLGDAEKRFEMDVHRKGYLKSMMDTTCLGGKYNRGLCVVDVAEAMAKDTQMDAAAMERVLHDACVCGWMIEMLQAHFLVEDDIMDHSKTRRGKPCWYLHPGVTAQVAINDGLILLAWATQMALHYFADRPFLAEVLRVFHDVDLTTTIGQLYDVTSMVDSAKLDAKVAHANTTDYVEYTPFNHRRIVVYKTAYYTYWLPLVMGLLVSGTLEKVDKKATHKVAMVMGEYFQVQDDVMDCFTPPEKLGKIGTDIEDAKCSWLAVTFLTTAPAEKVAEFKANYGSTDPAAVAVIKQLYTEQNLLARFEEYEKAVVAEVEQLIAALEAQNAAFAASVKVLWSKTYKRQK
From the text: as §1

fetal mouse metatarsals = assay: bone resorption assay: 45Ca2+ release from 17-day old fetal mouse metatarsals; type: cell-based; conditions: for IC50: Table 4
Procedure: Compounds are tested in a bone resorption assay: ^45Ca^2+ release from 17-day old fetal mouse metatarsals (ref. 37).

[3] = target: T. brucei soluble vacuolar pyrophosphatase; assay: T. brucei soluble vacuolar pyrophosphatase inhibition; type: biochemical, Trypanosoma brucei; conditions: Table 5; read-out: (9) T. brucei soluble vacuolar pyrophosphatase IC50
From the text: We have obtained data for selected bisphosphonate compounds against parasites including Trypanosoma brucei, Trypanosoma cruzi, and Leishmania major. […] See Table 5 (in some instances, the same data depicted elsewhere herein, e.g., in Table 1, may be presented again to facilitate comparative analysis).

Vγ2Vδ2 T cells [4] = conditions: TNF-α release, footnote b: data from Ref. 30; read-out: gammadelta T cell stimulation, EC50; cited from earlier work
L. major FPPS [5] = target: T2, L. major FPPS; conditions: read-out: L. major FPPS Ki; Table 1, footnote a: data from Ref. 17; cited from earlier work
pyrophosphatase enzymes = assay: Pyrophosphatase inhibition; type: biochemical
From the text: We explored the hypothesis of whether analogs of pyrophosphate could block pyrophosphatase enzymes and/or inhibit cellular growth or function. We used certain bisphosphonate compounds that are currently applied in bone resorption therapy.

parasite cell growth = assay: Parasite cell growth inhibition; type: cell-based
From the text: We explored the hypothesis of whether analogs of pyrophosphate could block pyrophosphatase enzymes and/or inhibit cellular growth or function. We used certain bisphosphonate compounds that are currently applied in bone resorption therapy. The compounds included pamidronate (Aredia®, Novartis), alendronate (Fosamax®, Merck), and risedronate (Actonel®, Procter & Gamble). […] Without wishing to be bound by a particular theory, the compounds appeared to act as inhibitors of isoprenoid biosynthesis (FIG. 6).

cutaneous leishmaniasis = assay: Treatment of cutaneous leishmaniasis in mice; type: in vivo
From the text: The average lesion size in treated mice was reduced during a time period of several weeks and in a dose-dependent manner relative to […] mice.

[6] = system: human nasopharyngeal carcinoma cells; assay: Toxicity testing in human nasopharyngeal carcinoma cells; type: cell-based
Procedure: We have obtained data for selected bisphosphonate compounds in the contexts of D. discoideum assays, human FPPS assays, gammadelta T cell stimulation assays, and bone resorption assays. […] Some toxicity testing was also performed. See Table 4 (in some instances, the same data depicted elsewhere herein, e.g., in Table 1, may be presented again to facilitate comparative analysis).

[7] = Table 4, read-out: (1) D. discoideum IC50
[8] = Table 4, read-out: (2) human FPPS IC50
[9] = Table 4, read-out: (3) gammadelta T cell stimulation EC50
[10] = Table 1 and text, read-out: L. major FPPS Ki
[11] = cell growth inhibition, Table 1 and text, read-out: D. discoideum IC50
[12] = TNF-α release, Table 1 and text, read-out: gammadelta T cell stimulation, EC50
[13] = Table 5, read-out: (7) L. major FPPS Ki
[14] = Table 3, additional testing, read-out: gammadelta T cell stimulation EC50
[15] = Dictyostelium discoideum, read-out: (1) D. discoideum IC50
[16] = Homo sapiens, T-cell, read-out: (3) gammadelta T cell stimulation EC50
[17] = Homo sapiens, T-cell, read-out: gammadelta T cell stimulation EC50

CN(C)c1cc[n+](CC(O)(P(=O)([O-])O)P(=O)(O)O)cc1 (stereo not drawn) [Compound 451]
IC50 (Dictyostelium discoideum; [7]): 31 µM
(3) gammadelta T cell stimulation EC50 (Vγ2Vδ2 T cells [1]; Table 4): inactive
IC50 (human FPPS; [8]): 280000 nM

CCCCC#Cc1ccc[n+](CC(P(=O)([O-])O)P(=O)(O)O)c1 (stereo not drawn) [Compound 597]
EC50 (Vγ2Vδ2 T cells [1]; [9]): 58 µM
IC50 (human FPPS; [8]): 1900 nM

COc1ccc[n+](CC(O)(P(=O)([O-])O)P(=O)(O)O)c1 (stereo not drawn) [Compound 446]
Ki (L. major FPPS [2]; [10]): 30 nM
IC50 (fetal mouse metatarsals): 370 nM
IC50 (Dictyostelium discoideum; [7]): 6 µM
IC50 (Dictyostelium discoideum; [11]): 6 µM
EC50 (Vγ2Vδ2 T cells [1]; [12]): 4.6 µM

O=P([O-])(O)C(C[n+]1cccc(Cl)c1)P(=O)(O)O (stereo not drawn) [Compound 526]
IC50 (Dictyostelium discoideum; [7]): 2.1 µM
EC50 (Vγ2Vδ2 T cells [1]; [9]): 8.6 µM
IC50 (human FPPS; [8]): 1200 nM

O=P([O-])(O)C(O)(C[n+]1cccc(Cc2ccccc2)c1)P(=O)(O)O (stereo not drawn) [Compound 335]
Ki (L. major FPPS [2]; [10]): 160 nM
Ki (L. major FPPS [2]; [13]): 160 nM
IC50 [3]: 70 µM
IC50 (Dictyostelium discoideum; [7]): 11 µM
IC50 (Dictyostelium discoideum; [11]): 8.5 µM
activity in gammadelta T cell stimulation (Vγ2Vδ2 T cells [1]; TNF-α release): poor activity
EC50 (Vγ2Vδ2 T cells [1]; [12]): 430 µM
EC50 (Vγ2Vδ2 T cells [1]; [14]): 63.4 µM
EC50 (Vγ2Vδ2 T cells [1]; [9]): 430 µM

O=P(O)(O)C(NC1CCCCCC1)P(=O)(O)O [incadronate]
EC50 (Vγ2Vδ2 T cells [4]): 15 µM
Ki (L. major FPPS [5]): 23 nM
IC50 (Dictyostelium discoideum; [11]): 1.6 µM

NCCCC(O)(P(=O)(O)O)P(=O)(O)O [alendronate]
inhibition of pyrophosphatases (pyrophosphatase enzymes): did not appear necessarily to inhibit
EC50 (Vγ2Vδ2 T cells [4]): 52 µM
parasite cell growth inhibition (parasite cell growth): did inhibit

O=P([O-])(O)C(C[n+]1cccc(I)c1)P(=O)(O)O (stereo not drawn) [Compound 542]
IC50 (Dictyostelium discoideum; [7]): 1.7 µM
EC50 (Vγ2Vδ2 T cells [1]; [9]): 12 µM
IC50 (human FPPS; [8]): 1200 nM

NCCC(O)(P(=O)(O)O)P(=O)(O)O [pamidronate]
inhibition of pyrophosphatases (pyrophosphatase enzymes): did not appear necessarily to inhibit
parasite cell growth inhibition (parasite cell growth): did inhibit
treating cutaneous leishmaniasis (cutaneous leishmaniasis; mice): effective
average lesion size (cutaneous leishmaniasis; treated mice, several weeks, dose-dependent): reduced

O=P([O-])(O)C(O)(C[n+]1cccc(I)c1)P(=O)(O)O (stereo not drawn) [Compound 582]
IC50 (Dictyostelium discoideum; [7]): 3.5 µM
IC50 (human FPPS; [8]): 1600 nM

O=P([O-])(O)C(O)(C[n+]1cccc(-c2ccccc2)c1)P(=O)(O)O (stereo not drawn) [Compound 300]
IC50 (fetal mouse metatarsals; Mus musculus): 410 nM
IC50 [3]: 35 µM
IC50 (Dictyostelium discoideum; [15]): 2.8 µM
IC50 (Dictyostelium discoideum; Dictyostelium discoideum, read-out: D. discoideum IC50): 2.8 µM
EC50 (Vγ2Vδ2 T cells [1]; [16]): 3.7 µM
EC50 (Vγ2Vδ2 T cells [1]; [17]): 2.1 µM
EC50 (Vγ2Vδ2 T cells [1]; Homo sapiens, T-cell, read-out: gammadelta T cell stimulation, EC50): 3.7 µM
IC50 ([6]; read-out: (5) Toxicity IC50): 5.4 µg/mL (≈ 15 µM)
IC50 (human FPPS): 1700 nM

O=P(O)(O)C(O)(Cc1cccnc1)P(=O)(O)O [risedronate]
inhibition of pyrophosphatases (pyrophosphatase enzymes): did not appear necessarily to inhibit
EC50 (Vγ2Vδ2 T cells [4]): 6.2 µM
parasite cell growth inhibition (parasite cell growth): did inhibit

CC([n+]1ccccc1)C(O)(P(=O)([O-])O)P(=O)(O)O (single isomer, unassigned) [Compound 591]
IC50 (Dictyostelium discoideum; [7]): 38 µM
IC50 (human FPPS; [8]): 29000 nM

CCOc1cccc(-c2ccc[n+](CC(P(=O)([O-])O)P(=O)(O)O)c2)c1 (stereo not drawn) [Compound 588]
IC50 (Dictyostelium discoideum; [7]): 3.3 µM
EC50 (Vγ2Vδ2 T cells [1]; [9]): 120 µM
IC50 (human FPPS; [8]): 11000 nM

O=P([O-])(O)C(O)(C[n+]1cccc(Br)c1)P(=O)(O)O (stereo not drawn) [Compound 484]
IC50 (Dictyostelium discoideum; [15]): 3.5 µM
EC50 (Vγ2Vδ2 T cells [1]; [17]): 4.6 µM
IC50 (human FPPS): 2500 nM

O=P([O-])(O)C(O)(C[n+]1cccc(F)c1)P(=O)(O)O (stereo not drawn) [Compound 461]
Ki (L. major FPPS [2]; [13]): 50 nM
potency in bone resorption (fetal mouse metatarsals): very potent
IC50 (fetal mouse metatarsals; Mus musculus): 75 nM
IC50 (Dictyostelium discoideum; [15]): 3.7 µM
EC50 (Vγ2Vδ2 T cells [1]; [16]): 2.7 µM
EC50 (Vγ2Vδ2 T cells [1]; [17]): 2.7 µM

CCCCc1ccc[n+](CC(O)(P(=O)([O-])O)P(=O)(O)O)c1 (stereo not drawn) [Compound 445]
Ki (L. major FPPS [2]; [10]): 20 nM
IC50 (Dictyostelium discoideum; [7]): 3 µM
IC50 (Dictyostelium discoideum; [11]): 2.9 µM
EC50 (Vγ2Vδ2 T cells [1]; [12]): 5.2 µM
EC50 (Vγ2Vδ2 T cells [1]; [14]): 2.5 µM
EC50 (Vγ2Vδ2 T cells [1]; [9]): 5.2 µM

O=P([O-])(O)C(C[n+]1cccc(F)c1)P(=O)(O)O (stereo not drawn) [Compound 477]
IC50 (Dictyostelium discoideum; [7]): 2.7 µM
EC50 (Vγ2Vδ2 T cells [1]; [14]): 1.8 µM
IC50 (human FPPS; [8]): 1400 nM

O=P([O-])(O)C(C[n+]1cccc(C(F)(F)F)c1)P(=O)(O)O (stereo not drawn) [Compound 511]
IC50 (Dictyostelium discoideum; [7]): 4.1 µM
EC50 (Vγ2Vδ2 T cells [1]; [9]): 14 µM
IC50 (human FPPS; [8]): 2500 nM

Cc1ccc[n+](CC(O)(P(=O)([O-])O)P(=O)(O)O)c1 (stereo not drawn) [Compound 297]
Ki (L. major FPPS [2]; [10]): 38 nM
IC50 (fetal mouse metatarsals): 220 nM
IC50 (Dictyostelium discoideum; [7]): 2.8 µM
IC50 (Dictyostelium discoideum; [11]): 1.5 µM
EC50 (Vγ2Vδ2 T cells [1]; [12]): 4.6 µM
EC50 (Vγ2Vδ2 T cells [1]; [14]): 4.9 µM
(5) Toxicity IC50 [6]: 5.3 µg/mL

Cc1cccc(Cc2ccc[n+](CC(O)(P(=O)([O-])O)P(=O)(O)O)c2)c1 (stereo not drawn) [Compound 344]
Ki (L. major FPPS [2]; [10]): 70 nM
Ki (L. major FPPS [2]; [13]): 70 nM
IC50 [3]: 78 µM
IC50 (Dictyostelium discoideum; [7]): 8.5 µM
IC50 (Dictyostelium discoideum; [11]): 9.9 µM
activity in gammadelta T cell stimulation (Vγ2Vδ2 T cells [1]; TNF-α release): poor activity
EC50 (Vγ2Vδ2 T cells [1]; [12]): 140 µM
EC50 (Vγ2Vδ2 T cells [1]; [9]): 140 µM
IC50 (human FPPS; [8]): 17000 nM

O=P([O-])(O)C(O)(C[n+]1cccc(O)c1)P(=O)(O)O (stereo not drawn) [Compound 595]
IC50 (Dictyostelium discoideum; [7]): 49 µM
EC50 (Vγ2Vδ2 T cells [1]; [9]): 210 µM
IC50 (human FPPS; [8]): 2700 nM

O=P([O-])(O)C(O)(C[n+]1cccc(-c2ccc(O)cc2)c1)P(=O)(O)O (stereo not drawn) [Compound 359]
Ki (L. major FPPS [2]; [10]): 75 nM
IC50 (Dictyostelium discoideum; [7]): 2.9 µM
IC50 (Dictyostelium discoideum; [11]): 2.9 µM
EC50 (Vγ2Vδ2 T cells [1]; [12]): 24 µM
EC50 (Vγ2Vδ2 T cells [1]; [9]): 24 µM

O=P([O-])(O)C(O)(C[n+]1cccc(-c2cccc(-c3ccccc3)c2)c1)P(=O)(O)O (stereo not drawn) [Compound 364]
EC50 (Vγ2Vδ2 T cells [1]; [12]): > 1000 µM
EC50 (Vγ2Vδ2 T cells [1]; [9]): > 1000 µM
IC50 (human FPPS; [8]): 37000 nM
